Data taken from patent US7220784B2, “Substituted stilbenes and their reactions” (priority 2000, dated 2007).
Where two headings read alike, the source gives them in different places.

Tests used:
[1] = system: A2780; assay: Cytotoxicity/growth inhibition assay (MTT), A2780; type: cell-based; conditions: read-out: A2780 IC50
Description: (§1) The following assays (1–5) were carried out as described in our paper (Woods, et al, British Journal of Cancer, 71, 705–711 (1995)). In addition to the cell lines described in this paper, other established human cell lines (K562, HUVEC, H460, BE, H529, and HT29) were used in the cytotoxicity/growth inhibition assay. • (1) Inhibition of tubulin assembly. The figure quoted is the concentration required to reduce assembly of tubulin by 50%. Tubulin assembly is monitored by light scatter/absorption at 350 nm.
(§2) (2) Competition for the colchicine binding site on tubulin. The figure quoted represents the % of ^3H-colchicine bound following co-incubation of test compound and ^3H-cochicine with isolated tubulin. Where ester pro-drugs were used the experiments were carried out in the presence and absence of porcine liver esterase. • (3) Cytotoxicity/growth inhibition assay. This was carried out by the MTT assay. • (4) Permeability (shape-change) assay in endothelial cells. This was carried out using a method based on that of Watts et al. (Anticancer Res., 17, 71–75, (1997)). This involved the diffusion of a fluorescently labelled dextran through a barrier of endothelial cells (HUVEC) grown to confluence on a porous membrane. The effect of agents to alter the shape of these cells results in an increase in the permeability of the cells to the dye. The figure represents the increase in permeability over control cultures when drug is added (30 minutes, 1 mM.). • (5) Experiments to study the anti-vascular effects of these agents were carried out as described previously by our group. (Zhao et al, European Journal of Nuclear Medicine, 26, 231–238 (1999)). The anti-vascular effects of the agents were monitored by either positron emission tomography (PET) or by histologogical examination following treatment of mice bearing T50:80 murine breast tumours, or H460 human lung tumours. • (6) Anti-tumour efficacy of agents was determined in xenografts of H460 human lung cancer. Animals (n=5) were trated either with 5 daily injections and tumour size measured with time following treatment. • (7) The pharmacokinetic profile of agents was determined in mice following injection with drug. Blood was taken at various times following treatment and analysed by HPLC with UV detection. The HPLC conditions were isocratic using a 5 micron C18 BDS column (150×4.6) ad eluting with 75% MeOH in water with a detection wavelength of 290 nm. […] (AND(P)H:quinone oxidoreductace, EC 1.6.99.2). DT-diaphorase is an enzyme over-expressed in a number of human tumours. […] This two-electron reducing enzyme can be used to selectively activate prodrugs within cancers which over-express the enzyme.

[2] = system: P388 murine leukaemia cell line; assay: Cytotoxicity/growth inhibition assay (MTT), P388; type: cell-based
Description: as §2, with “This was carried out using a method based on that of Watts et al. (Anticancer Res., 17, 71–75, (1997)).” left out, “(Zhao et al, European Journal of Nuclear Medicine, 26, 231–238 (1999)).” left out, “detection.” for “detection. The HPLC conditions were isocratic using a 5 micron C18 BDS column (150×4.6) ad eluting with 75% MeOH in water with a detection wavelength of 290 nm.”

[3] = system: tubulin; assay: CD IC50 (Tables 12-26, abbreviation not defined); type: binding
[4] = system: K562 human myelogeneous leukaemia cell line; assay: Cytotoxicity/growth inhibition assay (MTT), K562; type: cell-based; conditions: MTT, read-out: K562 IC50
Text: as §1, with “In” for “The following assays (1–5) were carried out as described in our paper (Woods, et al, British Journal of Cancer, 71, 705–711 (1995)). In”
as §2, with “This was carried out using a method based on that of Watts et al. (Anticancer Res., 17, 71–75, (1997)).” left out, “(Zhao et al, European Journal of Nuclear Medicine, 26, 231–238 (1999)).” left out, “detection.” for “detection. The HPLC conditions were isocratic using a 5 micron C18 BDS column (150×4.6) ad eluting with 75% MeOH in water with a detection wavelength of 290 nm.”

[5] = system: tubulin; assay: MA IC50 (Tables 12-26, abbreviation not defined); type: biochemical
[6] = system: K562; assay: K562 cell cycle analysis; type: cell-based, human; conditions: K562; for % of cells in G0–G1 / % of cells in G2-M / % of cells in S phase: of cells with DNA content = 2 n or >2 n

SMILES | IC50 [3] [µM] | IC50 [5] [µM] | IC50 [1] [µM] | IC50 ([2]; MTT) [µM] | IC50 ([2]; Mus musculus, P388, MTT) [µM] | IC50 ([4]; Homo sapiens, K562) [µM] | IC50 [4] [µM] | % of cells with DNA content <2 n [6] [%] | % of cells in G0–G1 [6] [%] | % of cells in G2-M [6] [%] | % of cells in S phase [6] [%]
COc1cc(C=Cc2ccc(C=O)cc2)cc(OC)c1OC [Compound 96-188] |  |  | 0.081 | 0.32 |  |  |  |  |  |  | 
COc1ccc(C=Cc2ccc(C)c(C)c2)cc1 [Compound 141] | > 25 | > 10 |  |  | 4.9 | 1.6 |  |  |  |  | 
COc1ccc(C=Cc2ccc(C)c(C)c2)cc1O [Compound 146] | 12.5 | 3.09 |  |  | 0.4 | 0.07 |  | 31 | 8 | 65 | 27
Cc1ccc(C=Cc2ccc(C)c([N+](=O)[O-])c2)cc1C [Compound 151] | > 25 | > 10 |  |  | 9.7 | 1.5 |  |  |  |  | 
Cc1ccc(/C=C/c2ccc(C)c([N+](=O)[O-])c2)cc1C [Compound 152] | > 25 | > 10 |  | > 50 |  |  | > 50 |  |  |  | 
COc1ccc(C(C)=Cc2cc(OC)c(OC)c(OC)c2)cc1O [Compound 200] | > 25 | 9 |  |  | 7 | 2 |  |  |  |  | 

Now from value to compound, other results behind:

IC50 [3] [µM] | IC50 [5] [µM] | SMILES | IC50 [1] [µM] | IC50 ([2]; MTT) [µM] | IC50 ([2]; Mus musculus, P388, MTT) [µM] | IC50 ([4]; Homo sapiens, K562) [µM] | IC50 [4] [µM] | % of cells with DNA content <2 n [6] [%] | % of cells in G0–G1 [6] [%] | % of cells in G2-M [6] [%] | % of cells in S phase [6] [%]
> 25 | > 10 | COc1ccc(/C=C/c2ccc(C)c(C)c2)cc1 [Compound 142] |  | 20.5 |  |  | > 50 |  |  |  | 
> 25 | > 10 | COc1ccc(C=Cc2ccc(C)c(C)c2)cc1Br [Compound 143] |  |  | 2.5 | 1.15 |  |  |  |  | 
> 25 | > 10 | COc1ccc(/C=C/c2ccc(C)c(C)c2)cc1Br [Compound 144] |  | > 50 |  |  | > 50 |  |  |  | 
> 25 | 6.57 | COc1ccc(C=Cc2ccc(C)c(C)c2)cc1F [Compound 147] |  |  | 1.7 | 0.09 |  | 28 | 10 | 57 | 33
> 25 | > 10 | COc1ccc(/C=C/c2ccc(C)c(C)c2)cc1F [Compound 148] |  | 36 |  |  | 2.5 |  |  |  | 
> 25 | > 10 | Cc1ccc(C=Cc2ccc(C)c(F)c2)cc1C [Compound 149] |  |  | 7.2 | 0.39 |  |  |  |  | 
> 25 | > 10 | Cc1ccc(/C=C/c2ccc(C)c(F)c2)cc1C [Compound 150] |  | 40 |  |  | > 50 |  |  |  | 
